Test [1] has as its system HeLa cells. Description: Cytoprotection of HeLa cells from Tunicamycin (ER) stress. As to conditions: 250 ng/ml Tunicamycin, 72 h. The class given is cell-based. How it is done: HeLa cells (40,000 cells/ml) were plated in a 96-well plate and treated with different concentrations of compound, as indicated, or DMSO vehicle in the presence of 250 ng/ml Tunicamycin for 72 h. To monitor cell death, 1/2000 dilution of the CellTox green dye (Promega) was added to the media. The growth of the cells was monitored over time and pictures taken every 2 h with the IncuCyte ZOOM system and analysed by the IncuCyte ZOOM software (Essen BioScience). To compare different compounds and their cytoprotective effect, a growth ratio for each time point was calculated:
Growth ratio=(Phase confluency (%) at X hours)/(Phase confluency (%) at 0 hours)
The end point of the assay (72 h) was chosen for generating the graphs.

Test [2] has as its target T1, R15A (Homo sapiens, UniProt O75807).
T1 construct: PPP1R15A amino acids 325-636 (R15A); His6 (C); made in house; host or cells: E. coli BL21 pLysS
Description: Light scattering to monitor aggregation of R15A. As to conditions: 1 mM compound, 5 μM R15A, 10 min, 20° C. How it is done: Samples were incubated for 10 min at RT. […] Therefore, light scattering was measured at 380 nm emission, 380 nm absorption to monitor the presence of aggregates. For each sample, 100 data points were collected over a period of 10 min, at 20° C., with constant stirring.

For test [3], the target named is T2, PP1 (1 μM) in the presence of R15A (Homo sapiens, UniProt O75807).
T2 construct: PPP1R15A amino acids 325-636 (R15A); His6 (C); made in house; host or cells: E. coli BL21 pLysS (R15A, eIF2α); E. coli BL21/pGro7 (PP1c)
Description: In vitro dephosphorylation of P-eIF2α using stoichiometric PP1c (1 μM) with R15A. Type of test: biochemical. As to conditions: 1 μM PP1c, 1 μM P-eIF2α, 30° C., 16 h; compounds 100 μM. How it is done:
PP1c was diluted to the appropriate concentration (as indicated in the figure legends) in dephosphorylation buffer immediately prior to use. Dephosphorylation reactions were carried out by pre-incubating diluted PP1c in the presence or absence of regulatory subunits (either […]), and/or compounds (all at 100 μM, except for Salubrinal which was used at 30 μM), for 15′ at RT. All compounds were diluted in DMSO, and DMSO vehicle was used in all control experiments.
The reaction was initiated by the addition of 1 μM P-eIF2α or ^33P Phosphorylase a substrates and then incubated at 30° C. for 16 h with shaking at 350 rpm. Reactions were stopped by addition of 4× Laemmli sample buffer. eIF2α samples were analyzed by immunoblotting or Phos-tag gels. […] Samples in FIG. 8 and FIG. 16 were run on a 15% SuperSep Phos-tag acrylamide gel (Alpha Laboratories) and visualized by staining with InstantBlue Protein Stain.

T1 sequence (O75807 325-636, stated change not applied): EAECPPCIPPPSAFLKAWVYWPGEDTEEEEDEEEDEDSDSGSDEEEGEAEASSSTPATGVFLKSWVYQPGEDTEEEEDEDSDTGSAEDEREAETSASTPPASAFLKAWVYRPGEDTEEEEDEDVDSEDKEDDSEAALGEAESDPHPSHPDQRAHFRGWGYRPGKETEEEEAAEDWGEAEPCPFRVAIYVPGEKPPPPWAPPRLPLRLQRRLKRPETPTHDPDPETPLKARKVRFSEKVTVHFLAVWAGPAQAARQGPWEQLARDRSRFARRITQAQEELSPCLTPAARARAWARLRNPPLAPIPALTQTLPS
T2 sequence (O75807 325-636, stated change not applied): as above
T2 sequence (P62136 7-330 partner): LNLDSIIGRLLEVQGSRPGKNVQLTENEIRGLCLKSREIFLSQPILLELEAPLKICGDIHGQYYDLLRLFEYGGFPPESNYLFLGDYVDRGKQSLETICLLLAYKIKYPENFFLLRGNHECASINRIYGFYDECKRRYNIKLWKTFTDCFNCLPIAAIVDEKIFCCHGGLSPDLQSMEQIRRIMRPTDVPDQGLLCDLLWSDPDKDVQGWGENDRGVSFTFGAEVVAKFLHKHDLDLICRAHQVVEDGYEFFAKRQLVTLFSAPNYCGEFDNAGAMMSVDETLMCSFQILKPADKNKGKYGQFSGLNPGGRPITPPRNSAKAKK

As to `N=C(N)N/N=C/c1c(Cl)cccc1Cl` [Guanabenz], the “cytoprotection from ER stress” value in test [1] is listed as “Dose dependent cytoprotection”. Also, the “aggregation of R15A (light scattering at 380 nm)” value in test [2] is recorded as “No aggregation”. For the same molecule, the “effect on dephosphorylation of eIF2α by PP1c with R15A” value in test [3] was “neither the selective R15A inhibitors, Guanabenz and Sephin1, nor the selective inhibitor of R15B, Raphin1, had any measurable effects”.
